Assay results reported in a melting point compilation (Tetko et al.; mined from patent text by program, amines drawn as free bases though some values may be those of a salt).

Row | Compound | melting point [°C]
1 | O=C(CS(=O)Cc1ccc(F)cc1)NO (stereo unspecified) | 176 to 177
2 | COc1c(CS(=O)(=O)C2=NOC(C)(C)C2)c(C(F)(F)F)nn1C | 113 to 114
3 | CCCC(N)(CO)CCCc1ccc(Sc2cccc(OCc3ccccc3)c2)cc1Cl (single isomer, unassigned; (+)) | 55 to 57
4 | O=C(O)CS(=O)(=O)Nc1ccc(F)cc1F | 110 to 112
5 | CCOC(=O)c1nn(C)cc1-c1ccccc1 | 145
6 | CCCc1nn(C)c2c(OCCOc3ccc(CC(OCC)C(=O)OCC)cc3)nc(-c3ccccc3)nc12 (stereo unspecified) | 80 to 82
7 | NC(c1ccnc2cc(Cl)ccc12)C1CCCC(CNc2ccnc3cc(Cl)ccc23)C1 (stereo unspecified) | 92 to 95
8 | O=C1c2ccc(Cl)cc2C(O)N1CCO[N+](=O)[O-] (stereo unspecified) | 116 to 118
9 | NC(=O)c1c(F)ccc(OCc2nc3cc(-c4ccncc4)ccc3s2)c1F | 255 to 258
10 | CNC(=O)n1nc(Oc2ncc(C(F)(F)F)cc2Cl)c(Cl)c1C | 81 to 83
11 | O=C(c1ccoc1)c1ccc(O)c(Cl)c1Cl | 138 to 142
12 | COc1ccc(CC2SC(=O)NC2=O)c2c1N(CC(=O)O)C(=O)CC2 (stereo unspecified) | 251 to 255
13 | Nc1nc2c(s1)CCN(CC=Cc1ccoc1)CC2 | 130 to 136
14 | CC(=O)c1cc(-c2cccc(F)c2)c(=O)n2c1-c1sccc1CC2 | 109 to 110
15 | CC1(C)CC(OC(=O)CCC(=O)OC2CC(C)(C)N(OC3CCCCC3)C(C)(C)C2)CC(C)(C)N1OC1CCCCC1 | 122 to 126
16 | CC(C)CNC(=O)C(C)NC(=O)C(C)NC(=O)C(C)NC(=O)OCc1ccccc1 (stereo unspecified) | 260 to 262
17 | Cc1cccc(C)c1NC(=O)N1CC(C)(C)NC1=S | 242 to 243
18 | Cc1c(Cl)ccc(S(C)(=O)=O)c1Cl | 125 to 127
19 | COC(=O)C1Sc2cc(OCc3ccccc3)ccc2OCC1=O (stereo unspecified) | 101 to 102
20 | CCCCNS(=O)(=O)CC(O)(CCCC)C1OC(C)(C)N(C(=O)OC(C)(C)C)C1CC1CCCCC1 (stereo unspecified) | 138 to 140
21 | CC(=O)Nc1nc(C)c(CCCl)s1 | 172 to 174
22 | Cc1cc(C)n(C)c1C(=O)c1ccc(Cl)cc1Cl | 96 to 98
23 | COc1cc(CNc2n[nH]c3ncnc(Nc4cccc(Cl)c4)c23)ccc1O | 223 to 225
24 | COc1ccc(N2CCN(CC(O)COc3ccc(OCc4ccccc4)cc3)CC2)c(OC)c1 (stereo unspecified) | 110 to 112
25 | Cc1ccc(C(NC2CCNCC2)(Oc2ccc(OCc3ccccc3)cc2)C(C)O)nc1 (stereo unspecified) | 123 to 125
26 | O=C(Nc1ccc2ccc(Cl)nc2n1)c1ccsc1 | 254

Row | Compound | melting point [°C]
27 | CC(=O)Oc1ccc(-c2cnc(-c3ccccc3)[nH]c2=O)cc1OC(C)=O | 240
28 | CC1CCc2c(Cl)c(N3CCOCC3)cc3c(=O)c(C(=O)O)cn1c23 (stereo unspecified) | 271 to 274
29 | CCOC(=O)NCC(=O)O | 55 to 58
30 | CCOc1cnc(-c2cc(Cl)c(OC)c3ccccc23)s1 | 67 to 68
31 | CN(C)C(=O)Cc1nnc2n1-c1ccc(Cl)cc1C(c1ccccc1)=NC2 | 204 to 206
32 | Oc1ccc(C=C2c3cc(O)c(O)cc3-c3ccc(O)c(O)c32)cc1 | 228 to 230
33 | CC(C)(C)c1cc(-c2noc(=O)[nH]2)cc(C(C)(C)C)c1O | 189 to 191
34 | C=C(C(=O)O)c1ccc(Cl)cc1 | 110
35 | CCOC(=O)c1cnc([N+](=O)[O-])n1C | 65 to 66
36 | NCc1cn(C2CCc3ccccc3C2)c(=S)[nH]1 (stereo unspecified) | 197 to 200
37 | Cc1oc(-c2ccccc2)nc1CCc1ccc(CO)cc1 | 103 to 104
38 | NC(=O)C1CCc2sc3ccc(F)cc3c2C1 (stereo unspecified) | 201 to 202
39 | O=C(NCC1CCCCC1)c1c(Cl)ccc2nc(N3CCC(c4nnn[nH]4)CC3)ccc12 | 252 to 255
40 | C[C@@H](CO)Oc1ccc(-c2ccccc2)cc1 | 75 to 78
41 | COC(=O)C(=C(C)C)N1C(=O)[C@H](N2C(=O)c3ccccc3C2=O)[C@H]1Cl | 122 to 125
42 | Oc1ncnc2c1c(Nc1cccnc1)nn2Cc1ccccc1 | 150 to 160
43 | CC(C)c1cccc(C(C)C)c1NC(=O)C(Cc1ccccc1)NCc1ccccc1 (stereo unspecified) | 120 to 124
44 | C=Cc1ccc(CN2C(=O)c3ccccc3C2=O)c2ccccc12 | 146 to 147
45 | COc1ccc(-c2cc(OC3SCC(O)C(O)C3O)ccn2)cc1 (stereo unspecified) | 150 to 154
46 | O=C1Cc2ccccc2C(c2ccccc2C(F)(F)F)N1 (stereo unspecified) | 210 to 212
47 | CC1=C(C(=O)OCCCl)C(c2cccc([N+](=O)[O-])c2)C(C(=O)OCC(C)C)=C(C)N1 (stereo unspecified) | 150 to 153
48 | CCCc1nn(C)c2c(NCc3ccc4c(c3)OCO4)nc(-c3ccc(C(=O)O)cc3)nc12 | 114
49 | COCCc1nc2c(N)nc3ccccc3c2n1CCCCNC(=O)c1cc2ccccc2cn1 | 199 to 200
50 | O=c1[nH]c2ccccc2n1CCCCCCN1CCN(C(c2ccccc2)c2ccccc2)CC1 | 190
51 | COc1ccc(N2CCN(c3ccc(-n4cnn(C(C)C)c4=O)cc3)CC2)cc1 | 210
52 | CCOC(=O)C1CNC(=O)CC1c1ccc(F)cc1 (stereo unspecified) | 116 to 120

Row | Compound | melting point [°C]
53 | N#Cc1ccc(CBr)c2ccccc12 | 131 to 133
54 | COc1cc(N)c(C(N)=O)cc1C(=O)N[C@H]1CCN(Cc2ccc(F)cc2)C[C@H]1OC (relative stereo) | 244
55 | CC1(C)CC(=O)OC1c1ccc(Cl)c([N+](=O)[O-])c1 (stereo unspecified) | 134 to 136
56 | NC(=O)c1ccc(-c2nn(-c3ccc(C(=O)O)cc3)c3ccc([N+](=O)[O-])cc23)cc1 | 320 to 322
57 | O=C(Nc1ccc(F)cc1)NN1CC=C(c2ccccc2)CC1 | 200 to 212
58 | COC(=O)NCc1cccc(-c2ccnc3c(C(=O)c4ccco4)cnn23)c1 | 152 to 154
59 | CNc1ncnc2c1ncn2Cc1c(Cl)cccc1Cl | 219 to 220
60 | CC(c1ccc(NC=O)c([N+](=O)[O-])c1)n1ccnc1 (stereo unspecified) | 158
61 | O=C(O)Cn1c(=O)c(=O)[nH]c2cc([N+](=O)[O-])c(-n3ccc(CN4CCN(C(c5ccccc5)c5ccccc5)CC4)c3)cc21 | > 245
62 | COc1ccc(-c2cnc3ncnn3c2NC2CCCC2)cc1 | 127
63 | COc1ccc(S(=O)(=O)C2(C(=O)O)CCN(CCCOc3ccccc3)CC2)cc1 | 101
64 | C#CCOc1cc(-n2c(OC)nc(C(F)(F)F)cc2=O)c(F)cc1Br | 136 to 138
65 | CC(C)[C@H](NC(=O)CCC(=O)c1ccc(F)cc1)C(=O)O | 103 to 105
66 | COc1ccccc1CC(=NCc1cccs1)N1C[C@@H]2C(=O)CCC(c3ccccc3)(c3ccccc3)[C@@H]2C1 | 88
67 | CCOC(=O)C(=O)c1oc2cc(C)ccc2c1O | 113 to 115
68 | N#CCOc1ccc(O)c([N+](=O)[O-])c1 | 113 to 114
69 | O=c1[nH]c2cc([N+](=O)[O-])c3c(c2[nH]c1=O)CN(S(=O)(=O)c1cccs1)CC3 | > 300
70 | N#CCCCN1CC=C(c2ccccc2)CC1 | 57 to 59
71 | O=[N+]([O-])c1cccc2c1nnn2C1CCCC(Cl)C1Cl (stereo unspecified) | 145 to 148
72 | O=C(Nc1cccnc1)N1CCC(=C2c3ccc(Cl)cc3C=Cc3cccnc32)CC1 | 95.9 to 97.6
73 | CC(=O)O[C@H]1[C@H](N2CCCNC2=NC#N)c2cc(C#N)ccc2OC1(C)C (relative stereo) | 245 to 246
74 | Nc1c(Cl)cc(Cl)n2nc(SCc3ccccc3)nc12 | 118 to 119
75 | COC(=O)C(CC(=O)c1ccccc1)SC(C)=O (stereo unspecified) | 53.5 to 54
76 | CN1CCN(c2cccc3ccc(Nc4ncccc4N)cc23)CC1 | 198 to 200
77 | Cn1c(COc2ccc(CC3SC(=O)NC3=O)cc2)nc2ccc(Oc3cccc(NC(=O)Nc4cccc(C#N)c4)c3)cc21 (stereo unspecified) | 148 to 154
78 | CCCCN(Cc1ccc(-c2ccccc2-c2nnn[nH]2)cc1)c1ncncc1C(=O)OCC(=O)OC | 65 to 80

Row | Compound | melting point [°C]
79 | CCOC(=O)CCC(=O)c1ccc(Cl)c(S(N)(=O)=O)c1 | 94 to 95
80 | Cc1cnc(CNC(=O)CCc2cnoc2-c2ccc(Cl)cc2)cn1 | 124 to 125
81 | CC(=O)N1CCC2(c3ccccc3)OC2C1 (stereo unspecified) | 68 to 71
82 | Cc1nc(-c2ccc(-c3ccco3)cc2)c(-c2ccc(S(C)(=O)=O)cc2)o1 | 143 to 144
83 | CCOC(=O)COc1ccc(Cn2c(-c3ccc(OCc4ccccc4)cc3)c(C)c3cc(OCc4ccccc4)ccc32)cc1 | 129 to 131
84 | CCCCCC(=O)Nc1nc2cc(Cl)ccc2nc1NC(=O)CC | 158 to 160
85 | COc1ccc(N2CCN(CC[C@H]3CC[C@H](NC(=O)N(C)C)CC3)CC2)c(Cl)c1Cl | 196 to 198
86 | CC(C)c1nn2ccccc2c1C(O)C(C)(C)C (stereo unspecified) | 95
87 | CCCC(=O)c1cc(C(=O)O)c2cc(Cc3ccc(F)cc3)cnc2c1O | 232 to 234
88 | CCCCOc1ccc(S(=O)(=O)C2(C(=O)O)CCN(CCCOc3ccccc3)CC2)cc1 | 84
89 | Cc1ccc2c(c1)C(C(=O)Nc1c(Cl)cccc1Cl)c1ccccc1CO2 (stereo unspecified) | 156 to 157
90 | CC(C)c1nccn1N=Cc1ccccc1 | 65 to 66
91 | CCCCCn1ncc2c(N)c3c(nc21)CCNC3=O | 161 to 162
92 | O=C(CCCO)Nc1cccc(/C=C/c2nc3ccccc3s2)c1 | 191 to 192
93 | C#CCN(C(=O)c1cnccc1C(F)(F)F)S(=O)(=O)c1cccc(Cl)c1 | 82 to 85
94 | Cc1ccc(N(C=C(C#N)C#N)N=C(C#N)C#N)cc1C | 162 to 163
95 | Cc1ncc2c(c1O)COC2(C)c1ccccc1 (stereo unspecified) | 245
96 | Cc1nnc2ccc(-c3cccc(CC(=O)NC(C)C)c3)nn12 | 197 to 200
97 | O=c1c2c(nc3ccc(Cl)cn13)C(=Cc1ccccc1)CC2 | 212 to 213
98 | NNC(=O)CSc1nc(Cl)cc(NCc2ccc(Cl)cc2)n1 | 178 to 182
99 | ON=c1cc(-c2cnccn2)ss1 | 262
100 | OC(CCSC(=S)Nc1ccc(Cl)cn1)c1ccccc1 (stereo unspecified) | 91
101 | O=S1(=O)N=CN(C2CC2)c2c(F)cc(F)c(F)c21 | 166 to 168
